Earlier results, collected in EP1988398B1, “Immunoassay for tramadol and its major metabolites” (Randox Laboratories Ltd., priority 2007, dated 2008).
Structures can show the parent of a compound that is named as a salt.

[1] = oral administration of a single 100 mg dose

Row | Structure (SMILES) | abundance of N-demethyltramadol relative to O-demethyltramadol (normal tramadol dosage levels) | plasma concentration of tramadol peaks [1] | time of peak plasma concentration [1] [h] | Urinary excretion of the dose as metabolites (oral, single 100 mg dose) [%] | Urinary excretion of the dose as the unchanged drug (oral, single 100 mg dose) [%]
1 | CNC[C@@H]1CCCC[C@@]1(O)c1cccc(OC)c1 (racemic) [N-demethyltramadol, (±)-cis-2-[(methylamino)methyl]-1-(3-methoxyphenyl)cyclohexanol] | 1.5-3 times | – | – | – | –
2 | COc1cccc(C2(O)CCCCC2CN(C)C)c1 (racemic) [Tramadol, (±)-cis-2-[(dimethylamino)methyl]-1-(3-methoxyphenyl)cyclohexanol hydrochloride] | – | approximately 600 ng/ml | 2 to 3 | 60 | 30
